Assay [1] has as its system 661W or C6 cells. The assay is described as follows: MTT assay, protection against calcium-ionophore A23187. The format is cell-based. Conditions: 1 μM A23187, 24 h. As for the experimental part: The compound 3-(4,5-Dimethylthiazol-2-yl)-2,5-diphenyltetrazolium bromide (MTT) is a tetrazolium ion that is reduced to a blue formazan dye via several families of NAD(P)H-dependent oxidoreductases. Formation of the formazan dye from MTT or other related tetrazolium dyes are commonly used as a viability assay even though, in fact, the assay is a metabolic capacity assay.
In this assay, 661W or C6 cells were maintained in DMEM supplemented with 10% FBS. 100 μL of 70,000 cells/mL cells were seeded into each well of 96 well plates using DMEM supplemented with 5% FBS. Cells were then allowed to grow to confluency for 48 hours. The compounds of the invention were added in 2 μL media and calcium-ionophore A23187 was then added in 1 μL for a final concentration of 1 μM and after 24 h, 20 μL of […] MTT were added to each well and the cells were incubated for another 4 h after which 100 μL of 1% SDS in 0.01M aqueous HCl were added to each well and the plates were incubated overnight. Absorbance was measured at […] (background correction). The 1 μM ionophore A23187 caused about 50% loss in MTT signal at 24 h. Protection was calculated as the increase in absorbance of treatment groups normalized to the vehicle control.
On the technique in general: Tetrazolium assays rely on reduction of a dye to a coloured formazan, in cell work by metabolically active cells.

The test system of assay [2] is 661W or C6 cells. The assay is described as follows: XF FCCP-uncoupled oxygen consumption rate assay (IBMX challenge).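 For all read-outs here: values normalized to the vehicle control.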 In kind it is cell-based. Conditions: 1 h pretreatment, 600 μM IBMX, 24 h, read-out: XF FCCP OCR (% Ctrl); for activity at 0.001 µM: compound 1 nM; for activity at 0.0008 µM: compound 800 pM; for activity at 0.01 µM: compound 10 nM. As for the experimental part: The XF FCCP-uncoupled oxygen consumption rate assay assesses mitochondrial capacity by measuring cellular respiration. It was shown that the maximum FCCP-uncoupled oxygen consumption rate (OCR) was a good estimate of maximal mitochondrial capacity (Beeson 2010) and that IBMX treatment of 661W or C6 cells for 24 h caused a loss in maximal uncoupled OCR (Perron 2013). Thus, cells were pretreated with the exemplified compounds for 1 h, added 600 μM IBMX and then measured the uncoupled rate after 24 h. In brief, the OCR measurements were performed using a Seahorse Bioscience XF instrument (Seahorse Bioscience, Billerica, Md.), as previously published (Perron 2013). O2 leakage through the plastic sides and bottom of the plate was accounted for using the AKOS algorithm in the XF software package. Cells were plated on 96- or 24-well custom plates designed for use in the XF and grown to confluency in DMEM+5% FBS (48 h). The medium was then replaced with DMEM+1% FBS for 24 h, along with any treatments.

Turning to `COc1ccc(CC2(OC(=O)c3ccccc3)C(=O)N(CCCN3CCOCC3)c3ccc(Cl)cc32)c(O)c1` (stereo not drawn) [Example 56, 5-chloro-3-(2-hydroxy-4-methoxybenzyl)-1-(3-morpholinopropyl)-2-oxoindolin-3-yl benzoate], in the assay with 661W or C6 cells [1] (compound 1 nM), the “MTT, % protection” value is given as 85.3%,. In the assay with 661W or C6 cells [2], the activity at 0.001 µM worked out at 68%.

For the compound `COc1ccc(O)c(CC2(OC(=O)c3ccccc3)C(=O)N(CCc3ccccc3)c3ccc(Cl)cc32)c1` (stereo not drawn) [Example 61, 5-chloro-3-(2-hydroxy-5-methoxybenzyl)-2-oxo-1-phenethylindolin-3-yl benzoate], in the assay with 661W or C6 cells [1] (compound 1 nM), the “MTT, % protection” value is recorded as 87.1%,. The activity at 0.001 µM with 661W or C6 cells [2] is 67%.

Turning to `CCCN1C(=O)C(O)(Cc2ccc(OC)cn2)c2cc(C)ccc21` (stereo not drawn) [Example 6, 3-hydroxy-3-((5-methoxypyridin-2-yl)methyl)-5-methyl-1-propylindolin-2-one], the “MTT, % protection” value in the assay with 661W or C6 cells [1] (compound 500 pM) is 68.8%,. Further, the activity at 0.0008 µM with 661W or C6 cells [2] was 67%.

In the case of `CCCN1C(=O)C(O)(Cc2cccc(OC)c2)c2cc(C)ccc21` (stereo not drawn) [Example 43, 3-hydroxy-3-(3-methoxybenzyl)-5-methyl-1-propylindolin-2-one], the “MTT, % protection” value in the assay with 661W or C6 cells [1] (compound 1 nM) is given as 64.8%,. Further, the activity at 0.001 µM in the assay with 661W or C6 cells [2] came to 69%.

`CCN1C(=O)C(Cc2cc(OC)ccc2O)(OC(=O)c2ccccc2)c2cc(Cl)ccc21` (stereo not drawn) [Example 62, 5-chloro-1-ethyl-3-(2-hydroxy-5-methoxybenzyl)-2-oxoindolin-3-yl benzoate]: the “MTT, % protection” value in the assay with 661W or C6 cells [1] (compound 800 pM) was 86.4%,. The activity at 0.0008 µM in the assay on 661W or C6 cells [2] turned out to be 70%.

Turning to `CCCCN1C(=O)C(O)(Cc2cc(OC)cc(OC)c2)c2cc(Cl)ccc21` (stereo not drawn) [Example 41, 1-butyl-5-chloro-3-(3,5-dimethoxybenzyl)-3-hydroxyindolin-2-one], the “MTT, % protection” value in the assay with 661W or C6 cells [1] (compound 1 μM) was 66.8%,. For the same compound, the activity at 0.001 µM in the assay with 661W or C6 cells [2] came to 79%.

Consider `COc1cc(CC2(O)C(=O)N(CC(C)C)c3ccc(C)cc32)cc(OC)c1OC` (stereo not drawn) [Example 37, 3-hydroxy-1-isobutyl-5-methyl-3-(3,4,5-trimethoxybenzyl)indolin-2-one], for which the “MTT, % protection” value with 661W or C6 cells [1] (compound 800 pM) was 68.4%,. The activity at 0.001 µM in the assay with 661W or C6 cells [2] was 65%.

For the compound `CCCN1C(=O)C(O)(CC(=O)c2cccc(OC)n2)c2cc(C)ccc21` (stereo not drawn) [Example 26, 3-hydroxy-3-(2-(6-methoxypyridin-2-yl)-2-oxoethyl)-5-methyl-1-propylindolin-2-one], in the assay with 661W or C6 cells [1] (compound 10 nM), the “MTT, % protection” value is 83.8%,. Also, in the assay on 661W or C6 cells [2], the activity at 0.001 µM was found to be 62%.

`COc1cc(CC2(O)C(=O)N(CC(C)C)c3ccccc32)cc(OC)c1OC` (stereo not drawn) [Example 48, 3-hydroxy-1-isobutyl-3-(3,4,5-trimethoxybenzyl)indolin-2-one]: the “MTT, % protection” value in the assay with 661W or C6 cells [1] (compound 1 nM) is given as 91%,. Moreover, the activity at 0.001 µM in the assay on 661W or C6 cells [2] was 85%.

As for `CCN1C(=O)C(Cc2cccc(OC)c2)(OC(=O)c2ccccc2)c2cc(Cl)ccc21` (stereo not drawn) [Example 40, 5-chloro-1-ethyl-3-(3-methoxybenzyl)-2-oxoindolin-3-yl benzoate], the “MTT, % protection” value in the assay on 661W or C6 cells [1] (compound 1 nM) is 81.1%,. The activity at 0.001 µM in the assay with 661W or C6 cells [2] worked out at 66%.

As to `O=C1N(CCN2CCCCC2)c2ccc(Cl)cc2C1(O)Cc1ccccn1` (stereo not drawn) [Example 4, 5-chloro-3-hydroxy-1-(2-(piperidin-1-yl)ethyl)-3-(pyridin-2-ylmethyl)indolin-2-one], the “MTT, % protection” value with 661W or C6 cells [1] (compound 800 pM) was 61.5%,. Also, the activity at 0.001 µM in the assay on 661W or C6 cells [2] turned out to be 69%.

With `CCCCN1C(=O)C(O)(Cc2cccc(OC)c2)c2cc(Cl)ccc21` (stereo not drawn) [Example 42, 1-butyl-5-chloro-3-hydroxy-3-(3-methoxybenzyl)indolin-2-one], in the assay with 661W or C6 cells [1] (compound 1 nM), the “MTT, % protection” value is recorded as 69.8%,. Besides, the activity at 0.001 µM with 661W or C6 cells [2] was found to be 71%.

Take `COc1cc(CC2(OC(=O)c3ccccc3)C(=O)N(CCc3ccccc3)c3ccc(C)cc32)cc(OC)c1` (stereo not drawn) [Example 39, 3-(3,5-dimethoxybenzyl)-5-methyl-2-oxo-1-phenethylindolin-3-yl benzoate]: in the assay on 661W or C6 cells [1] (compound 1 nM), the “MTT, % protection” value is 83.2%,. The activity at 0.001 µM in the assay with 661W or C6 cells [2] was 66%.

Regarding `COc1cccnc1CC1(O)C(=O)N(CCc2ccccc2)c2ccc(Cl)cc21` (stereo not drawn) [Example 3, 5-chloro-3-hydroxy-3-((3-methoxypyridin-2-yl)methyl)-1-phenethylindolin-2-one], the “MTT, % protection” value in the assay with 661W or C6 cells [1] (compound 1 nM) was 74.5%,. In addition, the activity at 0.001 µM in the assay with 661W or C6 cells [2] stood at 74.5%.

Take `CCCN1C(=O)C(O)(CC(=O)c2c[nH]c3ccccc23)c2cc(C)ccc21` (stereo not drawn) [Example 24, 3-(2-(1H-indol-3-yl)-2-oxoethyl)-3-hydroxy-5-methyl-1-propylindolin-2-one]: the “MTT, % protection” value in the assay with 661W or C6 cells [1] (compound 1 nM) is 69%,. Moreover, the activity at 0.01 µM in the assay with 661W or C6 cells [2] is 59%.

In the case of `CCCCN1C(=O)C(Cc2c[nH]c3ccccc23)(OC(=O)c2ccccc2)c2ccccc21` (stereo not drawn) [Example 65, 3-((1H-indol-3-yl)methyl)-1-butyl-2-oxoindolin-3-yl benzoate], the “MTT, % protection” value in the assay on 661W or C6 cells [1] (compound 500 pM) was 135%,. Moreover, the activity at 0.0005 µM in the assay with 661W or C6 cells [2] (compound 500 pM) amounted to 61%.

With `CCN1C(=O)C(O)(Cc2ccc(OC)cc2)c2cc(C)ccc21` (stereo not drawn) [Example 51, 1-ethyl-3-hydroxy-3-(4-methoxybenzyl)-5-methylindolin-2-one], in the assay on 661W or C6 cells [1] (compound 1 nM), the “MTT, % protection” value is recorded as 62.2%,. In addition, the activity at 0.001 µM in the assay on 661W or C6 cells [2] is 65%.

With `COc1cc(CC2(OC(=O)c3ccccc3)C(=O)N(CCc3ccccc3)c3ccc(Cl)cc32)cc(OC)c1OC` (stereo not drawn) [Example 50, 5-chloro-2-oxo-1-phenethyl-3-(3,4,5-trimethoxybenzyl)indolin-3-yl benzoate], the “MTT, % protection” value with 661W or C6 cells [1] (compound 1 nM) is recorded as 79.2%,. The activity at 0.001 µM in the assay with 661W or C6 cells [2] stood at 65%.

As for `CCCN1C(=O)C(Cc2c[nH]c3ccccc23)(OC(=O)c2ccccc2)c2cc(Cl)ccc21` (stereo not drawn) [Example 63, 3-((1H-indol-3-yl)methyl)-5-chloro-2-oxo-1-propylindolin-3-yl benzoate], the “MTT, % protection” value in the assay with 661W or C6 cells [1] (compound 1 nM) is listed as 120%,. Further, the activity at 0.001 µM in the assay with 661W or C6 cells [2] worked out at 78%.

As for `CCCN1C(=O)C(O)(CC(=O)c2ccccn2)c2cc(Cl)ccc21` (stereo not drawn) [Example 23, 5-chloro-3-hydroxy-3-(2-oxo-2-(pyridin-2-yl)ethyl)-1-propylindolin-2-one], in the assay on 661W or C6 cells [1] (compound 10 nM), the “MTT, % protection” value is on record as 73%,. For the same compound, the activity at 0.01 µM in the assay with 661W or C6 cells [2] was 73%.

`COc1ccc(CC2(OC(=O)c3ccccc3)C(=O)N(CCCC(C)C)c3ccc(C)cc32)c(O)c1` (stereo not drawn) [Example 53, 3-(2-hydroxy-4-methoxybenzyl)-5-methyl-1-(4-methylpentyl)-2-oxoindolin-3-yl benzoate]: in the assay on 661W or C6 cells [1] (compound 1 nM), the “MTT, % protection” value is reported as 100%,. Besides, the activity at 0.001 µM in the assay on 661W or C6 cells [2] was determined as 91%.

Turning to `CCCN1C(=O)C(O)(CC(=O)c2ccc(OC)nc2OC)c2cc(Cl)ccc21` (stereo not drawn) [Example 22, 5-chloro-3-(2-(2,6-dimethoxypyridin-3-yl)-2-oxoethyl)-3-hydroxy-1-propylindolin-2-one], in the assay with 661W or C6 cells [1] (compound 10 nM), the “MTT, % protection” value is 71.8%,. Besides, the activity at 0.01 µM in the assay with 661W or C6 cells [2] stood at 76%.

In the case of `CCN1C(=O)C(Cc2cc(OC)cc(OC)c2)(OC(=O)c2ccccc2)c2cc(C)ccc21` (stereo not drawn) [Example 38, 3-(3,5-dimethoxybenzyl)-1-ethyl-5-methyl-2-oxoindolin-3-yl benzoate], the “MTT, % protection” value with 661W or C6 cells [1] (compound 1 nM) was 84.1%,. The activity at 0.001 µM with 661W or C6 cells [2] came out at 78%.

As for `CCCN1C(=O)C(O)(CC(=O)c2cccc(OC)n2)c2cc(Cl)cc(Cl)c21` (stereo not drawn) [Example 30, 5,7-dichloro-3-hydroxy-3-(2-(6-methoxypyridin-2-yl)-2-oxoethyl)-1-propylindolin-2-one], the “MTT, % protection” value in the assay with 661W or C6 cells [1] (compound 1 nM) is reported as 69%,. The activity at 0.001 µM in the assay on 661W or C6 cells [2] is 59%.
